In patent publication US6846827B1, “Pyrimidine derivatives” (AstraZeneca AB, priority 1999, dated 2005) one finds IC50 data, which are given here for 1 compound.

pIC50: −log10 of the molar value.

The target of experiment [1] is T1, p38α (Homo sapiens, UniProt Q16539).
T1 construct: c-myc (N); 6His (N); made in house; host or cells: E. coli (PET vectors)
Nature of the experiment: In vitro enzyme assay, p38α. Particulars: read-out: IC50 against p38α. The class given is biochemical. As to the method: The ability of compounds of the invention to inhibit the enzyme p38 kinase was assessed. Activity of test compounds against each of the p38α and p38β isoforms of the enzyme was determined. […]
Test compounds were solubilised in DMSO and 10 μl of a 1:10 diluted sample in ‘Kinase Buffer’ was added to a well in a Microtiter plate. […] The precipitated protein was phosphorylated by p38 kinase and test compounds were assessed for their ability to inhibit this phosphorylation. The plates were filtered using a Canberra Packard Unifilter and washed with 2% TCA, dried overnight and counted on a Top Count scintillation counter.
Test compounds were tested initially at a single dose and active compounds were retested to allow IC50 values to be determined.

The subject of experiment [2] is TNFα production in human whole blood. The experiment is described as follows: Human Whole Blood test: inhibition of LPS-stimulated TNFα production. It counts as cell-based. As to the method: The ability of the compounds of this invention to inhibit TNFα production was also assessed in a human whole blood assay. Human whole blood secretes TNFα when stimulated with LPS. This property of blood forms the basis of an assay which is used as a secondary test for compounds which profile as active in the PBMC test.
Heparinised (10 units/ml) human blood was obtained from volunteers. 160 μl whole blood were added to 96 well round-bottom plates (Corning 25850). Compounds were solubilised and serially diluted in RPMI 1640 medium (Gibco) supplemented with 50 units/ml penicillin, 50 μg/ml streptomycin and 2 mM glutamine, as detailed above. 20 μl of each test concentration was added to appropriate wells (triplicate cultures). 20 μl of RPMI 1640 medium supplemented with antibiotics and glutamine was added to control wells. Plates were incubated for 30 minutes at 37° C. (humidified incubator), prior to addition of 20 μl LPS (final concentration 10 μg/ml). RPMI 1640 medium was added to control wells. Six “LPS alone” and four “medium alone” controls were included on each plate. A known TNFα synthesis/secretion inhibitor was included in each test. Plates were incubated for 6 hours at 37° C. (humidified incubator). […] TNFα levels were measured by ELISA (see WO92/10190 and Current Protocols in Molecular Biology, vol 2 by Frederick M. Ausbel et al., John Wiley and Sons Inc.). […]

T1 sequence (Q16539 whole entry): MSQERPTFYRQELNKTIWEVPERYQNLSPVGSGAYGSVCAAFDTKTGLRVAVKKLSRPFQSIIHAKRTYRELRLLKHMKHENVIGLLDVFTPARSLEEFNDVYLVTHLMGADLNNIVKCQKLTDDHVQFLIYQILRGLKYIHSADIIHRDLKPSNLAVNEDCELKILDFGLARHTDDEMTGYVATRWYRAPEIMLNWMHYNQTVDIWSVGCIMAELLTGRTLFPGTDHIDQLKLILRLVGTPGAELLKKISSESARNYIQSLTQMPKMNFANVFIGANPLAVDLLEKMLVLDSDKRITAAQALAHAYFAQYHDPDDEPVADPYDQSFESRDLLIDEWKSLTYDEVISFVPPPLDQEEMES

By pIC50 is commonly meant the IC50 on a negative log10 scale, so that one unit is a factor of ten. Consider `Cc1ccc(NC(=O)c2cc(F)cc(N3CCOCC3)c2)cc1Nc1cc(C(N)=O)nc(Cl)n1` [6-Carbamoyl-2-chloro-4-[5-(3-fluoro-5-morpholinobenzamido)-2-methylanilino]-pyrimidine], for which the pIC50 in experiment [1] is roughly 7.52; in experiment [2], roughly 4.80.
